Assay results published in patent US7456177B2, “Heteroaryl fused azapolycyclic compounds” (Pfizer Inc., priority 2003, dated 2008).

melting point | SMILES
260 to 266 °C | CN1CC2Cc3cccnc3C(C2)C1.Cl.Cl (centres unmarked)
320 to 322 °C | Cn1nc2c3c(cccc3c1=O)C1CNCC2C1 (centres unmarked)
